Assay results from patent US20200368198A1, “METHODS FOR INCREASING FERTILITY” (NEWSOUTH INNOVATIONS PTY LIMITED, priority 2017, published 2020).
Several values for one entry are separate records, joined by “and”; a condition that tells them apart may be missing. Equal values may be shown once.

How the values were obtained:
C57BL6 females [1] = assay: Reversal design: pups born after chemotherapy followed by NMN; format: in vivo, mice; conditions: cisplatin 5 mg/kg i.p., NMN delivered well after chemotherapy; 6 mating rounds
From the text: In Examples 2-4, it was shown that co-treatment with NMN during chemotherapy treatment could protect against infertility. Next, we decided to investigate whether NMN treatment delivered some time following chemotherapy treatment could actively reverse chemotherapy induced infertility. […] The rationale of this experimental design is to investigate whether NMN has the ability to induce regeneration of the ovary. According to the standard dogma of reproductive biology, mammals are born with a set number of follicles which are slowly released as oocytes over the course of a lifetime, with the ovaries incapable of regenerating new follicles.

C57BL6 females [2] = assay: Reversal design: oocyte yield, cisplatin followed by NMN 4 weeks later; format: in vivo, mice; conditions: cisplatin 5 mg/kg i.p., per mouse
Protocol: To assess oocyte yield, and mice were hormonally stimulated to superovulated by intraperitoneal injection with 7.5 IU/mL of Pregnant Mare's Serum Gonadotropin (PMSG) (Folligon; Intervet, Boxmeer, Holland) to stimulate follicular growth. After 44-46 hours, ovaries were collected in HEPES-buffered minimum essential medium (aMEM; Gibco Life Technologies, Grand Island, N.Y.) supplemented with 50 µM of 3-isobuty-1-methylxanthine (IBMX) (Sigma aldrich, NSW, AU) (M2 medium) to maintain meitotic arrest at germinal vesicle stage. Cumulus oocyte complexes (COCs) were isolated from preovulatory follicles using a 27-gauge needle and collected using flame-pulled borosilicate Pasteur pipettes in M2 medium supplemented with 3 mg/ml bovine serum albumin (BSA; Sigma Aldrich, St. Louis, Mo.) and 100 μM IBMX (Sigma Aldrich). Cumulus oocyte complexes (COCs) were mechanically denuded of cumulus cells by pipetting, and the denuded oocytes were transferred to another dish containing a drop of fresh M2-medium plus IBMX on heat block with 37° C. with lid to protect oocytes from light.
Next, we decided to investigate whether NMN treatment delivered some time following chemotherapy treatment could actively reverse chemotherapy induced infertility. […]

NC(=O)c1ccc[n+]([C@@H]2O[C@H](COP(=O)([O-])O)[C@@H](O)[C@H]2O)c1 [NMN, nicotinamide mononucleotide]
Number of pups born (cisplatin followed by NMN) (C57BL6 females [1]): complete restoration | Oocyte yield (C57BL6 females [2]): restoration of oocyte number and 9 and 17 and 10
